Results published in PubChem BioAssay AID588780 (Sanford-Burnham Center for Chemical Genomics, 2011).
pIC50: −log10 of the molar value. Active and inactive are the calls of the source.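 How the source made its calls: active means compounds whose fitted half-maximal concentration in the cell-protection dose series is at or below a set limit; inactive means the rest.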

Each molecule was assayed on H9c2 cardiomyocytes, 2-deoxyglucose stress, ATP luminescence, 2 h (assay: protection of cardiomyocytes from 2-deoxyglucose injury, dose response, cell-based, 2-deoxyglucose stress, uHTS hits (AID 588780)).
In the case of `O=c1[nH]nc(-c2ccc(NCCCO)c([N+](=O)[O-])c2)c2ccccc12`, the IC50 was > 79 µM (inactive). With `O=C(N/N=C/c1cn(-c2ccccc2)nc1-c1cccnc1)c1cccnc1` the IC50 was > 79 µM (inactive). For `COc1ccc(NCc2n[nH]c(=O)c3ccccc23)cc1`, the IC50 was > 79 µM (inactive). For `CN(C)CCNc1ccc(-c2n[nH]c(=O)c3ccccc23)cc1[N+](=O)[O-]`, the IC50 was > 79 µM (inactive). For `CN1CCC(N(C)C(=O)CCc2nc3ccccc3c(=O)[nH]2)CC1`, the IC50 was > 79 µM (inactive). For `Cc1c(C#N)c(N)nc2c3c(sc12)NC(=O)CC3c1ccccc1` (stereo not drawn), the IC50 was > 79 µM (inactive). With `CCOC(=O)Cc1csc(NC(=O)NC2(C(F)(F)F)Oc3ccc(Cl)cc3O2)n1` (stereo not drawn) the IC50 was > 79 µM (inactive). With `Cc1cccc(OCCn2c(NC(=O)c3ccco3)nc3ccccc32)c1` the pIC50 was 4.75. For `O=C1NC(c2ccc(Cl)c([N+](=O)[O-])c2)Nc2ccccc21` (stereo not drawn), the IC50 was > 79 µM (inactive). In the case of `COc1ccc(CSc2nc3ccccc3c(=O)[nH]2)cc1F`, the IC50 was > 79 µM (inactive). With `CCOC(=O)COc1ccc2c3c(c(=O)oc2c1)CCCC3` the IC50 was > 79 µM (inactive). In the case of `O=c1cc(CSc2ccc([N+](=O)[O-])cc2)nc2sccn12`, the IC50 was > 79 µM (inactive). With `Cc1cccc(NC(=O)c2nc[nH]c2C(=O)NCCCNC(=O)c2[nH]cnc2C(=O)Nc2cccc(C)c2)c1` the IC50 was 31.6 µM (inactive). With `O=C(CSc1nnc(-c2cccnc2)n1Cc1ccco1)c1ccccc1` the IC50 was > 79 µM (inactive). For `N#CCSc1nc2cc(C(=O)N3CCC(C(N)=O)CC3)ccc2c2nc3ccccc3n12`, the pIC50 was 4.82. Molecule `COc1cc(/C=C(\C#N)c2nc3ccc(C)cc3[nH]2)c([N+](=O)[O-])cc1OC` has a pIC50 of 4.74. For `NS(=O)(=O)c1ccc(N=Cc2c(O)n(-c3nccs3)c(=O)c3ccccc23)cc1`, the IC50 was > 79 µM (inactive). For `O=C(N/N=C/c1ccccn1)c1cc(-c2ccncc2)nc2ccccc12`, the IC50 was > 79 µM (inactive). With `CCCCCCn1c(C)nc2c(c1=O)c1nc3ccccc3nc1n2/N=C/c1ccco1` the IC50 was > 79 µM (inactive). In the case of `O=CNc1cc(-c2ccc(C(=O)NC3CC3)cc2)cn2c(-c3ccc(F)c(Cl)c3)cnc12`, the IC50 was > 79 µM (inactive). With `CCN(CC)S(=O)(=O)c1ccc(N2CCOCC2)c(NC(=O)c2cc(-c3ccccn3)nc3ccccc23)c1` the IC50 was > 79 µM (inactive). `CN(CC1COc2ccccc2O1)c1nc(-c2cccnc2)nc2ccccc12` (stereo not drawn) was tested, and the IC50 was > 79 µM (inactive). `COc1cc2c(C(=O)NCc3ccccn3)cn(CC(C)C)c(=O)c2cc1OC` was tested, and the IC50 was 54.6 µM (inactive). `CN(C(=O)CSc1nc2c(c(=O)[nH]1)CCCC2)C1CCCCC1` was tested, and the IC50 was > 79 µM (inactive). With `CCCOc1ccc2[nH]c(C(=O)N/N=C/c3cc(OC)c(OC)c(OC)c3)cc2c1` the pIC50 was 5.04. In the case of `COc1ccc2occ(C(=O)c3coc4ccc(O)c(CN(C)C)c34)c2c1`, the IC50 was > 79 µM (inactive). With `CN(CC(=O)Nc1cccc(F)c1)C(=O)Cc1n[nH]c(=O)c2ccccc12` the IC50 was > 79 µM (inactive). For `COc1cc(C(=O)NNC(=O)c2ccc3ccccc3n2)cc(OC)c1OC`, the IC50 was > 79 µM (inactive). With `O=C(CCCSc1nc2sc3c(c2c(=O)[nH]1)CCC3)NCCCO` the IC50 was > 79 µM (inactive). For `CCOC(=O)c1cnc(Nc2nc3ccccc3o2)nc1CSc1nnc(C)s1`, the IC50 was > 79 µM (inactive). `Cn1c2ccc(F)cc2c2nnc(NN)nc21` was tested, and the IC50 was > 79 µM (inactive). `CC(=O)Nc1cccc(NC(=O)c2cc(-c3cccnc3)nc3ccc(Cl)cc23)c1` was tested, and the IC50 was > 79 µM (inactive). With `CCn1c(O)c(/C=N/N=C2CCCC2)c2ccc(C3=NNC(=O)CC3)cc21` the IC50 was > 79 µM (inactive). For `O=C(COc1ccc(F)cc1Cl)Nc1nc(-c2ccccn2)cs1`, the IC50 was > 79 µM (inactive). For `CCCCCCn1cnc2c(c1=O)c1nc3ccccc3nc1n2/N=C/c1ccco1`, the IC50 was > 79 µM (inactive). `O=C(N/N=C/c1ccc(-c2cccc([N+](=O)[O-])c2)o1)c1ccc([N+](=O)[O-])cc1` was tested, and the IC50 was > 79 µM (inactive). `Oc1c(Br)cc(Cl)cc1C=Nc1ccccc1Br` was tested, and the IC50 was 31.6 µM (inactive). `CC(C)(C)NC(=O)c1cccc(NC(=O)c2ccc(NC(=O)c3ccco3)cc2)c1` was tested, and the pIC50 was 4.81. For `CCOC(=O)Cc1n[nH]c(=O)c2ccccc12`, the IC50 was > 79 µM (inactive). `O=C(Nc1cc(=O)c2ccccc2o1)N1CCCCC1` was tested, and the IC50 was > 79 µM (inactive). Molecule `COc1cc(/C=N/n2nnnc2Nc2ccccc2)cc(OC)c1OC` has a pIC50 of 4.57. For `CCN(CCO)c1ncnc2c1sc1nc(C(C)C)c3c(c12)CC(C)(C)OC3`, the IC50 was > 79 µM (inactive). In the case of `CCOC(=O)C1CCN(c2cc3c(cc2NC(=O)c2ccccc2Br)n(C)c(=O)n3C)CC1`, the IC50 was 45.5 µM (inactive). In the case of `COc1ccc(-c2cc(=O)oc3c(C)c(O)c(CN(C)C)cc23)cc1`, the IC50 was > 79 µM (inactive). `COc1ccc(NC(=O)CN(C)C(=O)Cc2n[nH]c(=O)c3ccccc23)cc1` was tested, and the IC50 was > 79 µM (inactive). For `CN(C)CCCNc1ccc(-c2n[nH]c(=O)c3ccccc23)cc1[N+](=O)[O-]`, the IC50 was > 79 µM (inactive). In the case of `Cc1ccc(NC(=O)c2nc[nH]c2C(=O)NCCCCCNC(=O)OC(C)(C)C)cc1`, the IC50 was > 79 µM (inactive). With `O=C(Cn1[nH]c(=O)c2ccccc2c1=O)OCC(=O)N1CCc2ccccc2C1` the IC50 was > 79 µM (inactive). `COc1cc(-c2nnc(COC(=O)c3cc(C)nc4ccc(C)cc34)o2)cc(OC)c1OC` showed a pIC50 of 4.81. `O=C(c1ccccc1)c1ccc2nc(N3CCN(C(=O)c4ccco4)CC3)c3nncn3c2c1` was tested, and the pIC50 was 4.83. In the case of `COc1ccc(/C=C(\C#N)C(=O)c2c(C)[nH]c3ccccc23)cc1OC`, the IC50 was > 79 µM (inactive). Work on `COC(=O)Cn1c(=NC(=O)c2cc(-c3cccs3)nc3ccccc23)sc2cc(S(N)(=O)=O)ccc21` yielded a pIC50 of 5.16. In the case of `C/C(=N\NC(=O)c1c(Br)c(C)nn1C)c1ccc(NC(=O)c2ccoc2C)cc1`, the IC50 was > 79 µM (inactive). For `O=C(CCc1nc2ccccc2c(=O)[nH]1)NNC(=O)c1cccc(Cl)c1`, the IC50 was > 79 µM (inactive). With `O=c1[nH]c2cc3c(cc2cc1CN(Cc1nnnn1CC1CCCO1)C1CCCCC1)OCO3` (stereo not drawn) the IC50 was 57.1 µM (inactive). For `CCN1C(=O)[C@H]2[C@H]3CN=C(SCc4ccc(C#N)cc4)N3[C@@](Cc3ccccc3)(C(=O)OC)[C@H]2C1=O`, the IC50 was > 79 µM (inactive). `Oc1c(Br)cc(Br)cc1C=Nc1cccc2ncccc12` was tested, and the pIC50 was 4.56. For `C#Cc1cc(N2CCN(C(=O)c3ccoc3)CC2)n2nc(-c3cccc(Cl)c3)cc2n1`, the IC50 was > 79 µM (inactive). In the case of `COc1ccc(NC(=O)CCc2nc3ccccc3c(=O)[nH]2)cc1S(=O)(=O)N1CCCCC1`, the IC50 was > 79 µM (inactive). With `Cc1ccc2c(c1)nc1c3ccccc3nc(-c3ccccc3N)n21` the IC50 was > 79 µM (inactive). `CN(C(=O)Cn1nc(C(=O)O)c2ccccc2c1=O)C1(C#N)CCCCC1` was tested, and the IC50 was > 79 µM (inactive). For `COc1cc(C(=O)Nc2nc(OC)c(-c3ccccc3)c(OC)n2)cc(OC)c1OC`, the IC50 was > 79 µM (inactive). In the case of `O=c1[nH]c2cccc(F)c2n2cccc12`, the pIC50 was 5.09. `CCOC(=O)c1cc2c(=O)n3ccccc3nc2n(Cc2ccco2)c1=NC(=O)c1cccnc1` was tested, and the pIC50 was 4.65. `O=C(Cn1[nH]c(=O)c2ccccc2c1=O)N1CC=C(c2ccccc2)CC1` gave a pIC50 of 4.68. For `COc1ccc(-c2ccc3c(c2)S(=O)(=O)c2cccc(C(=O)N4CCN(c5c(Cl)cncc5Cl)CC4)c2C3=O)cc1OC`, the IC50 was > 79 µM (inactive). In the case of `O=S(=O)(c1ccc(Cl)cc1)c1cc(O)ccc1O`, the IC50 was > 79 µM (inactive). With `CC1CCCN(Cc2nc3c(c(=O)n(C)c(=O)n3C)n2CCCc2ccccc2)C1` (stereo not drawn) the IC50 was 35 µM (inactive). `COc1ccc(/C=N/NC(=O)c2cccnc2)cc1CN1CCc2ccccc2C1` was tested, and the IC50 was > 79 µM (inactive). In the case of `Oc1ccc(Cl)cc1C=Nc1ccc(Br)cc1`, the IC50 was > 79 µM (inactive). For `CSCC[C@H](NC(=O)OC(C)(C)C)C(=O)N/N=C/c1cccc2cccnc12`, the IC50 was 30.9 µM (inactive). For `CCOC(=O)c1c2ccc(OCC(=O)N/N=C/c3ccc(C)cc3)cc2n2ccccc12`, the IC50 was > 79 µM (inactive). For `Cc1ccc(-c2csc(NC(=O)Cn3[nH]c(=O)c4ccccc4c3=O)n2)cc1`, the pIC50 was 4.86. `C1=C(c2ccccc2)CCN(c2nc3ccccc3n3cnnc23)C1` showed a pIC50 of 4.56. In the case of `CC(=O)Nc1cccc(-c2cc(NC(C)=O)c3ncc(-c4cccc(C(C)=O)c4)n3c2)c1`, the IC50 was > 79 µM (inactive). With `O=C(Oc1ccc2c(-c3ccccc3)cc(=O)oc2c1)C1CCCCC1` the IC50 was 32.9 µM (inactive). In the case of `Cc1ccccc1NC(=O)COC(=O)CCc1nc2ccccc2c(=O)[nH]1`, the IC50 was > 79 µM (inactive). In the case of `CN(C)S(=O)(=O)n1cc(/C=C(\NC(=O)c2ccccc2F)C(=O)NCCN2CCOCC2)c2ccccc21`, the IC50 was > 79 µM (inactive). In the case of `Cc1ccc(-c2n[nH]c(=O)c3ccccc23)cc1S(=O)(=O)NCCO`, the IC50 was 39.8 µM (inactive). `O=c1c(O)c(-c2ccccc2)oc2cc(O)ccc12` was tested, and the IC50 was > 79 µM (inactive). For `Cc1ccc(-c2n[nH]c(=O)c3ccccc23)cc1S(=O)(=O)NCCN1CCOCC1`, the IC50 was > 79 µM (inactive). For `COc1ccc(NC(=O)N(C)[C@H]2C[C@H]3c4[nH]c5ccc(-c6ccc7c(c6)OCO7)cc5c4CCN3C[C@H]2[C@H](C)O)cc1`, the IC50 was > 79 µM (inactive). With `CCOC(=O)c1[nH]c2cc(OC)c(OC)cc2c1NC(=O)C(C)N1CCN(Cc2ccccc2)CC1` (stereo not drawn) the IC50 was > 79 µM (inactive). With `COc1cc(/C=N/NC(=O)NC23CC4CC(CC(C4)C2)C3)ccc1OCC(N)=O` the IC50 was > 79 µM (inactive). With `CCN(CC)CCn1c2c(c(SCC(=O)Nc3cccc(C(C)=O)c3)nc1=O)CCCC2` the pIC50 was 4.88. With `CCC(C)N1C(=O)S/C(=C/c2ccc3c(c2)n(C)c(=O)n3C)C1=O` (stereo not drawn) the IC50 was > 79 µM (inactive). With `Cc1nc(N2CCN(c3ccccn3)CC2)c2c(C)c(C(=O)Nc3ccc(F)cc3)sc2n1` the IC50 was > 79 µM (inactive). With `O=C(CCC(=O)N1CCN(C2CCCCC2)CC1)Nc1nnc(C(F)(F)F)s1` the IC50 was > 79 µM (inactive). `COc1c(C)cc(Br)cc1C(=O)Nc1cccc(-c2nc3ncccc3o2)c1` was tested, and the IC50 was > 79 µM (inactive). `CC(C)(C)c1ccc(OCC(=O)Nc2ccc3c4c(cccc24)C(=O)NC3=O)cc1` was tested, and the IC50 was > 79 µM (inactive). In the case of `CCOc1ccc(CC(=O)Nc2c(C(N)=O)oc3ccc(Br)cc23)cc1OCC`, the IC50 was > 79 µM (inactive). With `COc1ccc(-c2cc(C(=O)N(C)Cc3ccccc3F)c3ccccc3n2)cc1OC` the IC50 was > 79 µM (inactive). In the case of `COCCCNC(=O)/C(C#N)=C1\N=C(NC(=O)c2cccs2)c2ccccc21`, the IC50 was > 79 µM (inactive).
